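Tested at 5 concentrations; 48 h exposure; 96-well plates; endpoints linearly interpolated, else capped at highest concentration. GI50 marks 50% less growth.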 Active and inactive are the calls of the source. No stated cut-off is given here; in the data, active = GI50 up to about 1.1 µM and inactive = higher.
Columns and labels:
Assay in all cases: NCI-60 cell line screen, 48 h
Malme-3M = tested on: Malme-3M
K562 = tested on: K562
OVCAR-8 = tested on: OVCAR-8
SF-295 = tested on: SF-295
OVCAR-4 = tested on: OVCAR-4
Hs-578T = tested on: Hs-578T
786-0 = tested on: 786-0
HT-29 = tested on: HT-29
A549 = tested on: A549
HCC 2998 = tested on: HCC 2998
ACHN = tested on: ACHN
SW-620 = tested on: SW-620
NCI-H23 = tested on: NCI-H23
IGROV-1 = tested on: IGROV-1
MCF7 = tested on: MCF7
CAKI-1 = tested on: CAKI-1
SN12C = tested on: SN12C
M14 = tested on: M14
T47D = tested on: T47D

Measured: GI50

COc1ccc(OC)c([N+](=O)[O-])c1-c1nc2sc(C)cn2c1/C=N/N=C(N)N
inactive: Malme-3M 19.1 µM | K562 2.49 µM | OVCAR-8 25.7 µM | SF-295 24.3 µM | OVCAR-4 22.3 µM | Hs-578T 31 µM | 786-0 44.3 µM | HT-29 25.8 µM | A549 48.6 µM | HCC 2998 20.6 µM | ACHN 41 µM | SW-620 29.9 µM | NCI-H23 22.8 µM | IGROV-1 14.5 µM | MCF7 15.1 µM | CAKI-1 28.7 µM | SN12C 23.4 µM | M14 32.8 µM

Cc1cn(C(Cc2ccccc2)OCCO)c(=O)[nH]c1=O (centres undefined)
inactive: T47D > 100 µM | K562 > 100 µM | OVCAR-8 > 100 µM | SF-295 > 100 µM | OVCAR-4 > 100 µM | 786-0 > 100 µM | HT-29 > 100 µM | A549 > 100 µM | HCC 2998 > 100 µM | ACHN > 100 µM | SW-620 > 100 µM | NCI-H23 > 100 µM | IGROV-1 > 100 µM | MCF7 > 100 µM | CAKI-1 > 100 µM | SN12C > 100 µM | M14 > 100 µM

CC1OC2(CC(OCc3ccccc3)C1OCc1ccccc1)OCCO2 (centres undefined)
inactive: Malme-3M > 100 µM | K562 77.8 µM | OVCAR-8 > 100 µM | SF-295 51.1 µM | OVCAR-4 76.7 µM | Hs-578T 17.4 µM | 786-0 61.5 µM | HT-29 20.9 µM | A549 50.7 µM | HCC 2998 71.8 µM | ACHN 61.8 µM | SW-620 70 µM | NCI-H23 35 µM | IGROV-1 > 100 µM | MCF7 66.2 µM | CAKI-1 63.1 µM | SN12C 21.4 µM | M14 45.7 µM

COC(=O)C1CCC(=O)N1C(c1ccccc1)c1cc(OC)c(OC)c(OC)c1 (centres undefined)
inactive: Malme-3M 61.1 µM | T47D 55.8 µM | K562 21.8 µM | OVCAR-8 > 100 µM | SF-295 38.9 µM | OVCAR-4 49.7 µM | 786-0 > 100 µM | HT-29 29.4 µM | A549 54.2 µM | HCC 2998 > 100 µM | ACHN > 100 µM | SW-620 46.7 µM | NCI-H23 62.4 µM | IGROV-1 63.5 µM | MCF7 67.9 µM | CAKI-1 22.3 µM | SN12C 80.5 µM | M14 43 µM

CN1CCN(/C(N)=C(\C#N)C(=O)Nc2ccccc2)CC1
inactive: T47D > 100 µM | K562 > 100 µM | OVCAR-8 > 100 µM | SF-295 > 100 µM | 786-0 > 100 µM | A549 > 100 µM | HCC 2998 > 100 µM | ACHN > 100 µM | SW-620 > 100 µM | NCI-H23 > 100 µM | IGROV-1 > 100 µM | MCF7 > 100 µM | CAKI-1 > 100 µM | SN12C > 100 µM | M14 > 100 µM

OCCN(C1=NCCN1)/[N+](=C/c1ccc(Cl)cc1)[CH-]c1ccc(Cl)cc1
inactive: Malme-3M > 100 µM | K562 41.7 µM | OVCAR-8 > 100 µM | SF-295 > 100 µM | OVCAR-4 > 100 µM | Hs-578T > 100 µM | 786-0 > 100 µM | HT-29 94.8 µM | A549 > 100 µM | HCC 2998 29.4 µM | ACHN > 100 µM | SW-620 > 100 µM | NCI-H23 > 100 µM | IGROV-1 > 100 µM | MCF7 > 100 µM | CAKI-1 > 100 µM | SN12C > 100 µM | M14 83.9 µM

O=C(CC(C(=O)c1cccs1)c1ccc2c(c1)OCO2)c1ccc(Br)cc1 (centres undefined)
inactive: Malme-3M > 100 µM | T47D > 100 µM | K562 > 100 µM | OVCAR-8 > 100 µM | SF-295 > 100 µM | OVCAR-4 > 100 µM | 786-0 > 100 µM | A549 > 100 µM | HCC 2998 > 100 µM | ACHN > 100 µM | SW-620 > 100 µM | NCI-H23 > 100 µM | IGROV-1 > 100 µM | MCF7 > 100 µM | CAKI-1 > 100 µM | SN12C > 100 µM | M14 > 100 µM

CC[C@]1(Cc2ccc(OC)c(OC)c2)C=[N+]([O-])O[C@H](OC2CCCCC2c2ccccc2)[C@@H]1OC(C)=O (some centres undefined)
inactive: Malme-3M 52.8 µM | T47D 24.7 µM | K562 30.8 µM | OVCAR-8 50.6 µM | SF-295 37.9 µM | OVCAR-4 33 µM | 786-0 45.3 µM | HT-29 45.1 µM | A549 41.5 µM | HCC 2998 43.5 µM | ACHN 30.5 µM | SW-620 40.2 µM | NCI-H23 56.1 µM | IGROV-1 39.4 µM | MCF7 28.8 µM | CAKI-1 21.2 µM | SN12C 36.6 µM | M14 45.3 µM
